Experimental data: the supplement of paper PMC4858399

Assays:
Details in all cases: exposure time 48 h
[1] = tested on: Caenorhabditis elegans N2; assay: lowest effective concentration for larval growth inhibition (size below effect threshold); higher = less potent
Outline: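 Worm size was taken as per-worm extinction on the Biosort, log-transformed and turned into well means. The larvae (C. elegans N2, L1 stage, 50 per 96-well) had spent 48 h at 20°C in K-medium with killed bacteria, 1% DMSO and 0.5, 1, 5, 10, 50, 100 or 200 µM chemical. The lowest effective concentration marks the first dose where the plate-adjusted mean size drops under a cutoff and remains under it at every higher dose; the cutoff is 5.665.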

[2] = tested on: Caenorhabditis elegans N2; assay: mean nematode size ln(EXT) after 48 h, plate-adjusted (DMSO control set to 6) (ln(EXT), control-adjusted); higher = larger nematodes / less growth inhibition
Outline: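 Each treatment used 4–6 wells of 50 synchronised C. elegans N2 L1 larvae, kept for 48 h at 20°C in K-medium with killed OP50, 1% DMSO and 0.5–200 µM chemical. Debris was excluded by a growth model after the Biosort measured per-worm extinction. Mean size per well came from natural-logged values and was plate-adjusted. That adjustment subtracted the vehicle control mean and then added 6.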

[3] = tested on: Caenorhabditis elegans N2; assay: AC50 for larval growth inhibition (Hill fit); higher = less potent
Outline: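 After 48 h at 20°C in K-medium with killed OP50, 1% DMSO and 0.5–200 µM chemical, synchronised C. elegans N2 L1 larvae (50 per well, 96-well plates) were sized individually as extinction on a COPAS Biosort. These values were log-transformed and averaged per well, and wells with fewer than 10 worms were excluded. The AC50 was derived from a constrained Hill fit by weighted genetic-algorithm regression, and out-of-range values are censored.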

Structure (SMILES)	lowest effective concentration [1]	mean nematode size ln(EXT) (ln) ([2]; 0.5 µM)	mean nematode size ln(EXT) (ln) ([2]; 1 µM)	mean nematode size ln(EXT) (ln) ([2]; 5 µM)	mean nematode size ln(EXT) (ln) ([2]; 10 µM)	mean nematode size ln(EXT) (ln) ([2]; 50 µM)	mean nematode size ln(EXT) (ln) ([2]; 100 µM)	mean nematode size ln(EXT) (ln) ([2]; 200 µM)	AC50 for larval growth inhibition [3]
O=C(Nc1ccccc1-c1ccc(Cl)cc1)c1cccnc1Cl [Boscalid]	50 µM	6.09	6	5.75	5.68	4.94	5.21	5.39	9.83 µM
Cc1cc(C2CC2)nc(Nc2ccccc2)n1 [Cyprodinil]	50 µM	5.93	5.88	5.96	5.86	5.32	5.01	4	132 µM
Cc1[nH]c(=O)n(C(C)(C)C)c(=O)c1Cl [Terbacil]	200 µM	5.34	5.77	5.2	5.76	5.1	5.87	5.23	> 200 µM
CS(=O)(=O)c1cc(C(F)(F)F)ccc1C(=O)c1cnoc1C1CC1 [Isoxaflutole]	200 µM	6.11	6.29	6.22	6.31	6.07	6.15	5.61	> 200 µM
CC(C)(O)c1cnn2c(-c3ccc(F)c(-c4c(F)cccc4C#N)c3)cnc2n1	100 µM	5.88	5.79	5.71	5.8	5.82	5.66	5.05	> 200 µM
O=C(O)Cn1c(=O)n(Cc2ccc(Br)cc2F)c(=O)c2ccc(Cl)cc21 [Zenarestat]	200 µM	5.91	5.87	5.84	6.11	5.77	5.77	5.4	> 200 µM
CCCCC(O)(Cn1cncn1)c1ccc(Cl)cc1Cl (stereo not given) [Hexaconazole]	100 µM	5.86	5.78	5.71	5.99	5.81	4.65	4.09	84.2 µM
CN(C[C@@H](CC[N+]12CCC(C3CCCCC3)(CC1)CC2)c1ccc(Cl)c(Cl)c1)C(=O)c1cc(C(F)(F)F)cc(C(F)(F)F)c1	50 µM	5.87	6.12	5.97	5.76	3.96	3.97	3.56	22.8 µM
CCC[CH2][Sn]([Cl])([CH2]CCC)[CH2]CCC [Tributyltin chloride]	≤ 0.5 µM	4.58	4.74	3.7	3.56	3.85	3.97	3.48	< 0.5 µM
CCc1nc(N)nc(N)c1-c1ccc(Cl)cc1 [Pyrimethamine]	50 µM	5.86	5.91	6.02	5.67	5.66	5.43	4.91	> 200 µM
CC(C)(C)[C@H](O)[C@H](Cc1ccc(Cl)cc1)n1cncn1 (racemic) [Paclobutrazol]	50 µM	5.57	5.77	5.8	5.97	5.33	5.58	4.63	> 200 µM
CSc1ccc(Oc2ccc(S(N)(=O)=O)cc2CN(C)C)cc1C	200 µM	5.74	5.87	5.86	5.84	5.83	5.69	5.17	> 200 µM
c1ccc2c(c1)-c1cccc3cccc-2c13 [Fluoranthene]	5 µM	5.79	5.87	5.65	5.05	4.05	3.8	4.82	9.33 µM
CCOP(=S)(OCC)Oc1ccc([N+](=O)[O-])cc1 [Parathion]	≤ 0.5 µM	5.59	5.66	5.54	5.03	3.46	3.63	3.36	13.4 µM
C1CCC(SSC2CCCCC2)CC1 [Dicyclohexyl disulfide]	50 µM	5.76	5.82	5.78	5.74	5.65	5.62	5.44	> 200 µM
CC(C)(C)C(O)/C(=C/c1ccc(Cl)cc1Cl)n1cncn1 (stereo not given) [Diniconazole]	10 µM	5.97	5.84	5.68	5.59	4.97	3.98	4.28	38.3 µM
CCCCCCCCCCCC(=O)OC [Methyl laurate]	200 µM	5.77	5.99	5.92	5.94	5.74	5.82	4.96	> 200 µM
CCOP(=S)(OCC)Oc1nc(Cl)n(C(C)C)n1 [Isazofos]	≤ 0.5 µM	4.88	5.05	4.5	4.43	3.8	3.59	3.78	3.38 µM
Oc1cc2ccccc2c2ccccc12 [9-Phenanthrol]	50 µM	5.85	5.85	5.84	5.72	5.41	4.71	4.03	119 µM
COc1ccc2cc(S(=O)(=O)N[C@H](CC(=O)N[C@H](Cc3ccc(CN4[C@H](C)CCC[C@@H]4C)cc3)C(=O)N(C)C(C)C)c3ccc4c(c3)OCO4)ccc2c1	100 µM	5.87	5.8	5.85	5.73	5.76	5.43	4.99	> 200 µM
